Among the data in article PMC11435058, “Synthesis of New Thiazole-Privileged Chalcones as Tubulin Polymerization Inhibitors with Potential Anticancer Activities” (Pharmaceuticals, 2024) are activity values, retold here.

The structures appear in SMILES notation.

The test system of one test is ACHN. Nature of the test: NCI-60 anticancer screen (SRB; single dose and five doses). The following applies: Homo sapiens, 48 h, read-out: Growth Percentage.
Another test concerns HL-60(TB). The description is as above. The following applies: Homo sapiens, HL-60, 48 h, read-out: Growth Percentage.
Another test concerns NCI-H460. The description is as above. Conditions: Homo sapiens, NCI-H460, 48 h, read-out: Growth Percentage.
The test system of another test is PC-3. Described as above. Conditions: Homo sapiens, PC-3, 48 h, read-out: Growth Percentage.
For the next test, the system named is COLO 205. The description is as above. Conditions: Homo sapiens, COLO 205, 48 h, read-out: Growth Percentage.
A further test relates to NCI-H522. The test is described as above. Conditions: Homo sapiens, NCI-H522, 48 h, read-out: Growth Percentage.
Another test relates to NCI-H226. The test is described as above. The following applies: Homo sapiens, NCI-H226, 48 h, read-out: Growth Percentage.
Another test concerns OVCAR-3. Kind of test: cells. The following applies: Homo sapiens, OVCAR-3, 48 h, read-out: Growth Percentage.
A further test has as its system MOLT-4. Kind of test: NCI-60 anticancer screen (SRB; single dose and five doses). Conditions: Homo sapiens, MOLT-4, 48 h, read-out: Growth Percentage.
In another test the test system is M14. The description is as above. Conditions: Homo sapiens, M14, 48 h, read-out: Growth Percentage.
The test system of the next test is RXF 393. The test is described as above. Conditions: Homo sapiens, RXF 393, 48 h, read-out: Growth Percentage.
The test system of the next test is SF-268. The test is described as above. Conditions: Homo sapiens, SF-268, 48 h, read-out: Growth Percentage.
The next test deals with HCT-15. The description is as above. Conditions: Homo sapiens, HCT-15, 48 h, read-out: Growth Percentage.
The test system of the next test is MDA-MB-468. Described as above. It is filed as cell-based, human. The following applies: Homo sapiens, 48 h; MDA-MB-468; dose of 10 μM; read-out: Growth Percentage. How it is done:
The methodology of the NCI anticancer screening has been described in detail elsewhere (http://www.dtp.nci.nih.gov). For detailed information, see Appendix A in the Supplementary Materials.
4.2.1. Screening of the anticancer activity against a panel of 60 cell Lines.
The methodology of the NCI anticancer screening has been described in detail elsewhere (http://www.dtp.nci.nih.gov.) Briefly, the primary anticancer assay was performed at approximately 60 human tumor cell lines panel derived from nine neoplastic diseases, in accordance with the protocol of the Drug Evaluation Branch, National Cancer Institute, Bethesda. Tested compounds were added to the culture at a single concentration (10μM) and the cultures were incubated for 48 h. End -point determinations were made with a protein binding dye, SRB. Results for each tested compound was reported as the percent of growth of the treated cells when compared to the untreated control cells. The percentage growth was evaluated spectrophotometrically versus controls not treated with test agents. […]

The subject of another test is UACC-257. The test is described as above. Conditions: Homo sapiens, UACC-257, 48 h, read-out: Growth Percentage.
A further test relates to 786-0. Described as above. The following applies: Homo sapiens, 786-0, 48 h, read-out: Growth Percentage.
In another test the test system is SK-MEL-2. The description is as above. The following applies: Homo sapiens, SK-MEL-2, 48 h, read-out: Growth Percentage.
Another test has as its system A498. Described as above. The following applies: Homo sapiens, A498, 48 h, read-out: Growth Percentage, A498; dose of 10 μM.
A further test relates to SN12C. The description is as above. Conditions: Homo sapiens, 48 h, read-out: Growth Percentage.
A further test concerns BT-549. The test is described as above. Conditions: Homo sapiens, BT-549, 48 h, read-out: Growth Percentage.
The next test deals with A549/ATCC. The test is described as above. Conditions: Homo sapiens, A549, 48 h, read-out: Growth Percentage.
A further test relates to SW-620. The description is as above. The following applies: Homo sapiens, SW-620, 48 h, read-out: Growth Percentage.
Another test relates to NCI-H322M. The description is as above. Conditions: Homo sapiens, 48 h, read-out: Growth Percentage.
Another test concerns MALME-3M. Described as above. Conditions: Homo sapiens, 48 h, read-out: Growth Percentage.

As for `COc1ccc(/C=C/C(=O)c2sc(=S)[nH]c2C)c(OC)c1` [2n, (E)-3-(2,4-Dimethoxyphenyl)-1-(4-Methyl-2-Thioxo-2,3-Dihydrothiazol-5-yl)Prop-2-En-1-One], the activity at 10 µM is 77% in the test on ACHN; 55.8% with HL-60(TB); 89.8% in the test on NCI-H460; 75.7% in the test on PC-3; 123% with COLO 205; 73.5% in the test with NCI-H522. The activity at 10 µM in the test on NCI-H226 came to 79.7%; in the test with OVCAR-3, 91.2%; with MOLT-4 it was 72.3%; with M14 it was 75.8%; in the test with RXF 393, 68.9%; in the test on SF-268, 89.7%. For the same molecule, the activity at 10 µM is 45.8% in the test on HCT-15; 19.2% with MDA-MB-468; 84.4% in the test on UACC-257; 85.9% with 786-0; 64.7% in the test with SK-MEL-2; 101% with A498. For the same molecule, the activity at 10 µM worked out at 81% in the test on SN12C, 59.8% in the test on BT-549, 90% in the test on A549/ATCC and 84.9% in the test with SW-620.

Take `Cc1[nH]c(=S)sc1C(=O)/C=C/c1ccccc1Cl` [2d, (E)-3-(2-Chlorophenyl)-1-(4-Methyl-2-Thioxo-2,3-Dihydrothiazol-5-yl)Prop-2-En-1-One]: the activity at 10 µM in the test on NCI-H322M was found to be 106%; in the test on ACHN, 93.4%; with HL-60(TB) it was 53%; with NCI-H460, 82.2%; in the test with PC-3, 71.8%; with COLO 205, 118%. In addition, the activity at 10 µM turned out to be 90.1% with NCI-H522; 89.6% with NCI-H226; 77.4% in the test on OVCAR-3; 84.2% with MOLT-4; 82.3% in the test on M14; 93.8% in the test with RXF 393. In addition, the activity at 10 µM with SF-268 worked out at 80.4%; with HCT-15 it was 57.4%; with MDA-MB-468 it was 30.8%; in the test with UACC-257, 87.2%; with 786-0, 93.1%; with SK-MEL-2, 84.8%. Also, the activity at 10 µM in the test with MALME-3M stood at 105%; in the test with A498 it was 116%; in the test on SN12C it was 80%; with BT-549, 76.8%; with A549/ATCC, 87.6%; in the test with SW-620 it was 82%.

For `Cc1[nH]c(=S)sc1C(=O)/C=C/c1cccc(F)c1` [2b, (E)-3-(3-Fluorophenyl)-1-(4-Methyl-2-Thioxo-2,3-Dihydrothiazol-5-yl)Prop-2-En-1-One], the activity at 10 µM in the test on NCI-H322M was 84.5%; in the test on ACHN, 56%; in the test on HL-60(TB), 12%; with NCI-H460, 43.2%; in the test on PC-3, 54.7%; in the test with COLO 205 it was 94.5%. Besides, the activity at 10 µM in the test with NCI-H522 is 63.9%; with NCI-H226, 85.7%; in the test with OVCAR-3, -1.17%; in the test on MOLT-4, 43.6%; in the test with M14, 78.5%; in the test with RXF 393, 23.2%. Further, the activity at 10 µM in the test with SF-268 is 82.3%; in the test with HCT-15, 19.1%; in the test with MDA-MB-468 it was -22.7%; in the test on UACC-257, 83.7%; with 786-0, 46.9%; in the test with SK-MEL-2 it was 81.2%. Moreover, the activity at 10 µM in the test with MALME-3M turned out to be 101%; with A498, 106%; in the test on SN12C, 32.1%; with BT-549, 65.7%; with A549/ATCC it was 76.4%; in the test on SW-620, 20.9%.
